We go through one compound from patent US20200352914A1, “METHODS OF TREATING HYPERTENSION WITH ACTIVATORS OF TIE-2” (Aerpio Pharmaceuticals, Inc., priority 2019, published 2020).

One experiment has as its target recombinant human VE-PTP (Homo sapiens, UniProt P23467). Nature of the experiment: Human VE-PTP (HPTPβ) phosphatase assay on eNOS Tyr81. In kind it is biochemical. The note with it: pre-incubation with 10 μmol/L; cell-free. The method, then:
Confluent monolayers of human endothelial cells expressing FLAG-tagged eNOS were cultured overnight in MCDB131 containing 0.1% BSA and then stimulated with Yoda1 (1 μmol/L) for 30 minutes to elicit phosphorylation of eNOS on Tyr81. eNOS-FLAG immunoprecipitates were used as substrates to test the ability of recombinant human VE-PTP to dephosphorylate eNOS Tyr81 in a cell-free in vitro reaction. Briefly after washing the FLAG-eNOS, immunoprecipitates were suspended in phosphatase assay buffer containing Tris/HCl pH 7.5 (50 mmol/L), NaCl (150 mmol/L), EDTA (1 mmol/L), and EDTA-free protease inhibitors mix at room temperature. An aliquot of the eNOS-FLAG immunoprecipitate was immediately processed for immunoblotting (input) and the remainder was divided into 6 identical aliquots and incubated for up to 10 minutes at room temperature in phosphatase assay buffer containing DTT (3 mmol/L) and recombinant human VE-PTP (100 U/50 μl reaction). Experiments were performed in the presence of solvent (1% DMSO) or Compound 2 (10 μmol/L) and reactions were stopped by boiling samples for 10 minutes in SDS sample buffer. eNOS phosphorylation was then analyzed by SDS-PAGE and immunoblotting.

The next experiment has as its system Sprague-Dawley rats. Nature of the experiment: MCT lung injury rat model of pulmonary hypertension (TABLE 30). The experiment is classed as in vivo. Particulars: subset (n=3) of the monocrotaline group; s.c. injection at day 21. The method, then: The MCT lung injury rat model was used to assess the effects of a Tie-2 activator disclosed herein, Compound 2, as a vasodilator of the pulmonary vasculature. At day 0, rats were treated with a single dose of 60 mg/kg monocrotaline (N=5) and compared to control rats (N=5), which were treated with vehicle. Animals from both groups underwent normal rodent care until day 21. At day 21, rats underwent simultaneous cannulation of the carotid and pulmonary artery/right ventricle. Arterial pressure was measured before and after subcutaneous injection of vehicle. Following the washout period of time, rats underwent the same measurements before and after subcutaneous injection of Compound 2. Hemodynamic endpoints included systemic pressure (via carotid catheterization) and pulmonary vascular pressure (right ventricular systolic pressure) vs. true pulmonary arterial pressure.
FIG. 31 panel A illustrates the effects of Compound 2 on mean arterial blood pressure (ABP), heart rate, and right ventricular pressure. Each time point represents a beat-to-beat analysis for each variable over a 2-min period, which were then averaged. […] All animals received Compound 2 at time=0 min.
After obtaining hemodynamic data, the rats were euthanized to assess the extent of RV hypertrophy, a marker of PH. […] RV hypertrophy was calculated based on the Fulton index using the following weight ratio: (RV/(LV+S)).

Chain of recombinant human VE-PTP (P23467 23-1997): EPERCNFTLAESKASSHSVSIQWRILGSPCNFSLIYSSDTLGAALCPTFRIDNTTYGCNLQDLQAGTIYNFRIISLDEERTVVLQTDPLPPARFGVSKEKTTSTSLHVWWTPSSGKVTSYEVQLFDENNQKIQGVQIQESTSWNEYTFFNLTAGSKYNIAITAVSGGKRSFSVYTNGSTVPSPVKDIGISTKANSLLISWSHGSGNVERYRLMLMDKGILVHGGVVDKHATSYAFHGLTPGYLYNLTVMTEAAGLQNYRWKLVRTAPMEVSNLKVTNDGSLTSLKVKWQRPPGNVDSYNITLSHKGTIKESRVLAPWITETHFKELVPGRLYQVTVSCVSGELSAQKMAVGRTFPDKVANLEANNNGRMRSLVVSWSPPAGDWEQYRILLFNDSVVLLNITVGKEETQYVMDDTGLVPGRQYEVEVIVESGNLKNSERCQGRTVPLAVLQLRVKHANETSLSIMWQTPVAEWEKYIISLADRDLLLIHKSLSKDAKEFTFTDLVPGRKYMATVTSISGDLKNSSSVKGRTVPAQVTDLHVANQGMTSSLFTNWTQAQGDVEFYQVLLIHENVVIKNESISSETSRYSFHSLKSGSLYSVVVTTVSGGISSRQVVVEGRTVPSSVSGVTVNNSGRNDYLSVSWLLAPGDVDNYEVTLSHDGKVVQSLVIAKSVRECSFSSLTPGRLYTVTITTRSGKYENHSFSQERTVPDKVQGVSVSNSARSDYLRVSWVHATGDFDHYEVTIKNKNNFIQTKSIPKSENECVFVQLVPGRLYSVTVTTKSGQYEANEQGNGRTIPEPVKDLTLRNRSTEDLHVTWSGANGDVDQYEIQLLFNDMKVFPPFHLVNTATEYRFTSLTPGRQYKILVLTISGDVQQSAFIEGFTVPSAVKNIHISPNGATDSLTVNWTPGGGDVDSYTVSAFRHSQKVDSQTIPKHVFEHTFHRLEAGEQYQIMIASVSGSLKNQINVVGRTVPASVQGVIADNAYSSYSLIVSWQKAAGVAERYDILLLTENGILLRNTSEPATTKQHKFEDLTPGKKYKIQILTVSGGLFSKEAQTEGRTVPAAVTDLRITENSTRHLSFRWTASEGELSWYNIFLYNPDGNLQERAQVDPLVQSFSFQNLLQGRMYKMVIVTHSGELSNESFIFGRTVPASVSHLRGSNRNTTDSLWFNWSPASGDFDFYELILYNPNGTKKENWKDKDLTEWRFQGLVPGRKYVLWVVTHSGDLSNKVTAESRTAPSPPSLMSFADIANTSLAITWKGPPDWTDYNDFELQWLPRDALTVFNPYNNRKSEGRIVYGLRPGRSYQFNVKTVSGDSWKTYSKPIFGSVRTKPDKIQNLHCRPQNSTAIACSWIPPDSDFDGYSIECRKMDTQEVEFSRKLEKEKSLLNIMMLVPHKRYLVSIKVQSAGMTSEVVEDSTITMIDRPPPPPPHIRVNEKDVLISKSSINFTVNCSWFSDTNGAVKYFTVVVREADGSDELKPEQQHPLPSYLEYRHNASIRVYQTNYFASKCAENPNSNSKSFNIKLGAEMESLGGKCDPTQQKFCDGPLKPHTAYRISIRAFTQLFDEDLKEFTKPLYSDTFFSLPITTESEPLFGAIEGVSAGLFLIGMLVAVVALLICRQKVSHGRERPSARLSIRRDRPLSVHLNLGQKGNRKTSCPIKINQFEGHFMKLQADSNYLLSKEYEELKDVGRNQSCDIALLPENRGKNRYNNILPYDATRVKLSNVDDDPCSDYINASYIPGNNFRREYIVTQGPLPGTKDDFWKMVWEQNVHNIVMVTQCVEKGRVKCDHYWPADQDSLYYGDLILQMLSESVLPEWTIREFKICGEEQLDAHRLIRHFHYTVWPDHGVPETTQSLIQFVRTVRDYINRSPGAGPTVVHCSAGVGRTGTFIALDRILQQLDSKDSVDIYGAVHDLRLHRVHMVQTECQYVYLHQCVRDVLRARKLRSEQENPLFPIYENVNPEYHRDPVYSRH

With `CCc1nc([C@H](Cc2ccc(NS(=O)(=O)O)cc2)NC(=O)[C@H](Cc2ccccc2)NC(=O)OC)cs1` [Compound 2], on recombinant human VE-PTP, the “time-dependent dephosphorylation of eNOS Tyr81 by recombinant VE-PTP” value is recorded as “abolished”. Moreover, the right ventricular pressure entry in the experiment with Sprague-Dawley rats is given as “significant drop in right ventricular pressure”.
